Reference: US7163787B2, “Methods for the identification of antiviral compounds” (Crucell Holland B.V., priority 2001, dated 2007)

Key:
HRV14 or HRV16 = details: cited from earlier work
HSV = details: A549 cells; cited from earlier work
HSV-1 [1] = test: Viable cell scoring by MTS assay of HSV-1 infected PER.C6 with acyclovir; type: cell-based, Herpes Simplex Virus type 1; details: HSV-1 on PER.C6; day 6 post infection
Procedure: (§1) FIG. 17. Virustatic effect of acyclovir against (A) HSV-1 and (B) HSV-2 using infection of PER.C6 with different 10 fold serial dilutions of virus and viable cell scoring by MTS assay on day 6 post infection.
(§2) To test the feasibility of PER.C6 for antiviral drug screening, the acyclovir/HSV system was used. A TCID50 titration of both a HSV-1 as well as a HSV-2 stock virus produced on PER.C6 (titer 6000 TCID50/ml) was performed in either the absence or in the presence of different concentrations of acyclovir. PER.C6 cells were seeded in a 96-wells tissue culture plate at a concentration of 1×10^5 cells/well, in normal culture medium, DMEM (Gibco) supplemented with heat inactivated FBS (origin US, Gibco) and 1 ml 4.9 M MgCl2 (Sigma). The day after seeding, cells were pre-incubated with the appropriate acyclovir (20 mg/ml, Genthon) concentration being, 200, 20, 2, 0,2 and 0 μg/ml, diluted in normal culture medium, for 2 hours at 37° C. and 10% CO2. A total of 20 wells were used per concentration. […]
(§3) At day 6 post infection, CPE was scored in each of the wells and TCID50 calculated according to the Karber method (1931), which is well known to persons skilled in the art. In addition, viable cells were scored with the MTS assay. […] 10% CO2, followed by reading the OD490 in an ELISA reader.

HSV-1 [2] = test: TCID50 titration of HSV-1 on PER.C6 with acyclovir, CPE score; type: cell-based, Herpes Simplex Virus type 1
Procedure: (§4) FIG. 16. Virustatic activity of acyclovir for Herpes Simplex Virus type 1 and type 2 (HSV-1 and HSV-2) using PER.C6 cells as a substrate for virus replication and TCID50 calculations based on CPE score on day 6 post infection.
as §2, §3

HSV-2 [3] = test: TCID50 titration of HSV-2 on PER.C6 with acyclovir, CPE score; type: cell-based, Herpes Simplex Virus type 2
Procedure: as §4, §2, §3

HSV-2 [4] = test: Viable cell scoring by MTS assay of HSV-2 infected PER.C6 with acyclovir; type: cell-based, Herpes Simplex Virus type 2; details: HSV-2 on PER.C6; day 6 post infection
Procedure: as §1, §2, §3

SMILES	cytopathic effect in infected cells (HRV14 or HRV16; cells infected with HRV14 or HRV16)	rhinovirus replication in vitro (HRV14 or HRV16; in vitro)	HSV replication (HSV)	prevention of cell death caused by virus (viable cells, MTS) (HSV-1 [1])	TCID50 reduction as compared to the control (HSV-1 [2]; HSV-1 on PER.C6, 20 μg/ml of acyclovir, CPE score day 6 post infection) [fold]	virustatic effect (HSV-1 [2]; HSV-1 propagated on PER.C6 cells)	amount of acyclovir for 1000 fold TCID50 reduction, relative to HSV-1 (HSV-2 [3]; HSV-2 on PER.C6, CPE score day 6 post infection)	virustatic effect (HSV-2 [3]; HSV-2 propagated on PER.C6 cells)	viable cells scored with MTS assay compared with TCID50 result (HSV-2 [4])
c1ccc2c(c1)oc1ccccc12 [Dibenzofuran]	hinder the cytopathic effect	block rhinovirus replication in vitro	–	–	–	–	–	–	–
Nc1nc2c(ncn2COCCO)c(=O)[nH]1 [acyclovir, 2-amino-1,9-dihydro-9-[(2-hydroethoxy)methyl]-6H-purin-6-one]	–	–	inhibited HSV replication	more effective at a lower dosage in preventing cell death caused by HSV-1 than by HSV-2	~1000	clear virustatic effect	required a higher amount of acyclovir	clear virustatic effect	comparable results were obtained
